Assay results reported in patent US20240025893A1, “PYRIMIDINE-AND NITROGEN-CONTAINING BICYCLIC COMPOUND” (Asahi Kasei Pharma Corporation, priority 2020, published 2024).

Experiments:
[1] = system: LPS-stimulated TNFα production in THP-1 cells; test: LPS-stimulated TNFα production inhibition test using human acute monocytic leukemia cell strain THP-1; assay type: cell-based; conditions: Homo sapiens, THP-1, 4 h, LPS 2.5 ng/mL, average values
Method: By the THP-1 assay, influence of a test compound on the TNFα production induced by LPS stimulation can be evaluated. The THP-1 cells (ATCC, Cat. TIB-202) were inoculated on a 96-well plate at a density of 1×10^5 cells/160 μL/well, a test compound was added in a volume of 20 μL, and the plate was incubated at 37° C. for 1 hour in a 5% CO2 incubator. Then, LPS in a volume of 20 μL (final concentration 2.5 ng/mL, Sigma, Cat. L2630) was added, and the plate was further incubated for 4 hours. After the incubation, the plate was centrifuged, and 100 μL of the supernatant was taken from each well, and used for evaluation of the amount of TNFα using HTRF (Cisbio, Cat. 62TNFPEB). In the measurement of the amount of TNFα, the supernatant was diluted twice with the medium, and then added to wells of a 384-well plate in a volume of 10 μL, then anti-TNFα-cryptate (5 μL), and anti-TNFα-XL665 (5 μL) were added, and the plate was left standing overnight. The fluorescence intensity ratio for the wavelengths of 620 and 665 nm (620 nm/665 nm) was measured with a microplate reader, and the amount of TNFα in the supernatant was calculated by using a calibration curve. The TNFα production suppression ratio observed with no addition of LPS was defined to be 100%, the TNFα production suppression ratio observed with no addition of the test compound was defined to be 0%, and IC50 of the test compound was calculated by using the 4-parameter logistic model of the data analysis software XLfit (ID Business Solutions Ltd.).

human IRAK-4 = human IRAK-4 (Homo sapiens (Human), UniProt Q9NWZ3); test: Measurement of human IRAK-4 inhibitory activity (TR-FRET, peptide substrate phosphorylation, 10 μM ATP); assay type: biochemical; conditions: 1 nM IRAK-4, 10 μM ATP, 23° C., 30 minutes; average values
Sequence of human IRAK-4 (Q9NWZ3 whole entry): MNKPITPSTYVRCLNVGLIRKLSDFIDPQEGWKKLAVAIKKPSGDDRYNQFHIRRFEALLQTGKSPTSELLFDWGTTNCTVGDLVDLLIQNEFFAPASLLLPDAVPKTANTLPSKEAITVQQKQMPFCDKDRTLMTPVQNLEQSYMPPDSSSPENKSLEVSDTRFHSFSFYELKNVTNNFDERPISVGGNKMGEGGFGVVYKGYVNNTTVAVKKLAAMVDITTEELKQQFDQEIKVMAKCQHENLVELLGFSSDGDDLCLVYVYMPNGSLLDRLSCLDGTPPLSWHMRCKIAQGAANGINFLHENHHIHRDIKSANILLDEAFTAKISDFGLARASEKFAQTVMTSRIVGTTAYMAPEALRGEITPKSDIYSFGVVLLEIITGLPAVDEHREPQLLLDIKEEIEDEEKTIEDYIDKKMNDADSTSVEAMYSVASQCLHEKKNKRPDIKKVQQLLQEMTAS
Method: For the measurement of the activity of the human IRAK-4 (Invitrogen, Cat. PV3362), phosphorylation of the IRAK-4 peptide substrate (biotin-KKKKRFSFKKSFKC) by the enzyme in the presence of 10 μM ATP (Sigma-Aldrich, Cat. A7699) was measured by the TR-FRET method. The enzymatic reaction was performed in a reaction buffer containing 50 mM HEPES (pH 7.2), 1 mM DTT, 0.1 mM Na3VO4, 5 mM MgCl2, 1 mM MnCl2, and 0.1% bovine serum albumin. For the measurement of the IRAK-4 inhibitory activity, a test compound was added to the reaction buffer containing 1 nM IRAK-4, 0.5 μM peptide substrate, and 10 μM ATP, and the mixture was incubated at 23° C. for 30 minutes. Then, a detection solution containing an antibody labeled with europium cryptate (0.3 μg/mL, the antibody was prepared by using the IRAK-4 peptide substrate as the antigen), streptavidin-XL665 (2 μg/mL, CisBio, Cat. 610SAXLB), 50 mM HEPES (pH 7.2), 0.1% BSA, 120 mM KF, and 66.7 mM EDTA (all the concentrations of the reagents are final concentrations) was added to terminate the reaction, and then the mixture was further incubated at 23° C. for 60 minutes. Fluorescence intensity was measured at wavelengths of 665 nm and 620 nm with a microplate reader, and the enzymatic activity was calculated as the ratio of fluorescence intensities at 665 nm and 620 nm (665 nm/620 nm).

IC50 [1] [nM]	IC50 (human IRAK-4) [nM]	Compound
135	3.46	O=C(Nc1nc2ccc(-c3cnc(CO[C@H]4CCC[C@@H]4O)nc3)cc2s1)C1CC(N2CCOC[C@@H]2C(F)(F)F)C1 (stereo partly shown) [b-02-54]
150	2.97	O=C(Nc1nc2ccc(-c3cnc(CO[C@H]4CCC[C@@H]4O)nc3)cc2s1)C1CC(N2CCOC[C@H]2C(F)(F)F)C1 (stereo partly shown) [b-02-55]
109	1.76	O=C(Nc1nc2ccc(-c3cnc(CO[C@H]4CCC[C@@H]4O)nc3)cc2s1)C1CC(NC2(C(F)F)CC2)C1 (stereo partly shown) [b-02-56]
119	2.62	O=C(Nc1nc2ccc(-c3cnc(CO[C@H]4CCC[C@@H]4O)nc3)cc2s1)C1CC(NC2(C(F)(F)F)CC2)C1 (stereo partly shown) [b-02-57]
133	2.7	O=C(Nc1nc2ccc(-c3cnc(CO[C@H]4CCC[C@@H]4O)nc3)cc2s1)C1CC(N[C@@H]2C[C@H]2C(F)(F)F)C1 (stereo partly shown) [b-02-58]
105	1.51	N#CC1(NC2CC(C(=O)Nc3nc4ccc(-c5cnc(CO[C@H]6CCC[C@@H]6O)nc5)cc4s3)C2)CC1 (stereo partly shown) [b-02-59]
158	4.27	O=C(Nc1nc2ccc(-c3cnc(CO[C@H]4CCC[C@@H]4O)nc3)cc2s1)C1CC(NC23CC(C(F)(F)F)(C2)C3)C1 (stereo partly shown) [b-02-60]
109	3.87	O=C(Nc1nc2ccc(-c3cnc(CO[C@H]4CCC[C@@H]4O)nc3)cc2s1)C1CC(N2CCOC(C(F)(F)F)C2)C1 (stereo partly shown) [b-02-61]
141	1.38	O=C(Nc1nc2ccc(-c3cnc(CO[C@H]4CCC[C@@H]4O)nc3)cc2s1)C1CC(N2CC[C@@H](OC(F)F)C2)C1 (stereo partly shown) [b-02-62]
159	2.39	O=C(Nc1nc2ccc(-c3cnc(CO[C@H]4CCC[C@@H]4O)nc3)cc2s1)C1CC(N2CCOC3(CCC3)C2)C1 (stereo partly shown) [b-02-63]
163	2.38	Cn1cc(NC2CC(C(=O)Nc3nc4ccc(-c5cnc(CO[C@H]6CCC[C@@H]6O)nc5)cc4s3)C2)cn1 (stereo partly shown) [b-02-65]
227	5	O=C(Nc1nc2ccc(-c3cnc(CO[C@H]4CCC[C@@H]4O)nc3)cc2s1)C1CC(N2CCc3ccccc32)C1 (stereo partly shown) [b-02-66]
91	2.36	CC(C)C[C@H]1COCCN1C1CC(C(=O)Nc2nc3ccc(-c4cnc(CO[C@H]5CCC[C@@H]5O)nc4)cc3s2)C1 (stereo partly shown) [b-02-67]
160	2.18	O=C(Nc1nc2ccc(-c3cnc(CO[C@H]4CCC[C@@H]4O)nc3)cc2s1)C1CC(N2CCOCC2C2CC2)C1 (stereo partly shown) [b-02-68]
80	1.81	O=C(Nc1nc2ccc(-c3cnc(CO[C@H]4CCC[C@@H]4O)nc3)cc2s1)C1CC(N2CCO[C@@H]3CCC[C@@H]32)C1 (stereo partly shown) [b-02-69]
90	2.94	CC1(C)CN(C2CC(C(=O)Nc3nc4ccc(-c5cnc(CO[C@H]6CCC[C@@H]6O)nc5)cc4s3)C2)[C@@H]2CCC[C@H]2O1 (stereo partly shown) [b-02-70]
105	2.36	O=C(Nc1nc2ccc(-c3cnc(CO[C@H]4CCC[C@@H]4O)nc3)cc2s1)C1CC(N2CCOCC2CC2CC2)C1 (stereo partly shown) [b-02-71]
162	1.47	CN(CCO)C1CC(C(=O)Nc2nc3ccc(-c4cnc(CO[C@H]5CCC[C@@H]5O)nc4)cc3s2)C1 (stereo partly shown) [b-02-72]
189	1.57	O=C(Nc1nc2ccc(-c3cnc(CO[C@H]4CCC[C@@H]4O)nc3)cc2s1)C1CC(N2CCC3(CC2)COC3)C1 (stereo partly shown) [b-02-74]
99	1.55	O=C(Nc1nc2ccc(-c3cnc(CO[C@H]4CCC[C@@H]4O)nc3)cc2s1)C1CC(NC2C3CC2C3)C1 (stereo partly shown) [b-02-76]
187	2.6	O=C(Nc1nc2ccc(-c3cnc(CO[C@H]4CCC[C@@H]4O)nc3)cc2s1)C1CC(N2CCCCO2)C1 (stereo partly shown) [b-02-77]

IC50 [1] [nM]	IC50 (human IRAK-4) [nM]	Compound
111	2.29	O=C(Nc1nc2ccc(-c3cnc(CO[C@H]4CCC[C@@H]4O)nc3)cc2s1)C1CC(NC2(C(F)(F)F)COC2)C1 (stereo partly shown) [b-02-78]
138	3.39	O=C(Nc1nc2ccc(-c3cnc(CO[C@H]4CCC[C@@H]4O)nc3)cc2s1)C1CC(NC2(C(F)(F)F)CCC2)C1 (stereo partly shown) [b-02-79]
176	6.86	O=C(Nc1nc2ccc(-c3cnc(CO[C@H]4CCC[C@@H]4O)nc3)cc2s1)C1CC(NC2(C(F)(F)F)CCCC2)C1 (stereo partly shown) [b-02-80]
202	3.64	O=C(Nc1nc2ccc(-c3cnc(CO[C@H]4CCC[C@@H]4O)nc3)cc2s1)C1CC(N2CCOC3(CCCC3)C2)C1 (stereo partly shown) [b-02-81]
131	4.02	CC1COC2(CCCC2)CN1C1CC(C(=O)Nc2nc3ccc(-c4cnc(CO[C@H]5CCC[C@@H]5O)nc4)cc3s2)C1 (stereo partly shown) [b-02-82]
149	1.93	O=C(Nc1nc2ccc(-c3cnc(CO[C@H]4CCC[C@@H]4O)nc3)cc2s1)C1CC(N2CCCCC2)C1 (stereo partly shown) [b-02-83]
101	1.04	C[C@@H]1CCCCN1C1CC(C(=O)Nc2nc3ccc(-c4cnc(CO[C@H]5CCC[C@@H]5O)nc4)cc3s2)C1 (stereo partly shown) [b-02-84]
127	1.88	CC(C)[C@@H]1[C@H](O)CCCN1C1CC(C(=O)Nc2nc3ccc(-c4cnc(CO[C@H]5CCC[C@@H]5O)nc4)cc3s2)C1 (stereo partly shown) [b-02-85]
132	0.803	O=C(Nc1nc2ccc(-c3cnc(CO[C@H]4CCC[C@@H]4O)nc3)cc2s1)C1CC(NCc2nccs2)C1 (stereo partly shown) [b-02-86]
182	0.95	O=C(Nc1nc2ccc(-c3cnc(CO[C@H]4CCC[C@@H]4O)nc3)cc2s1)C1CC(NCc2ccsn2)C1 (stereo partly shown) [b-02-87]
71	1.3	CN(C1CC(C(=O)Nc2nc3ccc(-c4cnc(CO[C@H]5CCC[C@@H]5O)nc4)cc3s2)C1)C12CC(C1)C2 (stereo partly drawn) [b-03-01, 3-(Bicyclo[1,1,1]pentan-1-yl(methyl)amino)-N-(6-(2-((((1S,2S)-2-hydroxycyclopentyl)oxy)methyl)pyrimidin-5-yl)benzo[d]thiazol-2-yl)cyclobutane-1-carboxamide]
145	11	O=C(Nc1nc2ccc(-c3cnc(CO[C@H]4CCC[C@@H]4O)nc3)cc2s1)C1CC(N(CCC(F)(F)F)C23CC(C2)C3)C1 (stereo partly shown) [b-03-02]
126	1.43	CN(C1CC1)C1CC(C(=O)Nc2nc3ccc(-c4cnc(CO[C@H]5CCC[C@@H]5O)nc4)cc3s2)C1 (stereo partly shown) [b-03-03]
117	1.67	CN(C1CC(C(=O)Nc2nc3ccc(-c4cnc(CO[C@H]5CCC[C@@H]5O)nc4)cc3s2)C1)C12CC(C)(C1)C2 (stereo partly shown) [b-03-04]
108	2.93	CN(C1CC(C(=O)Nc2nc3ccc(-c4cnc(CO[C@H]5CCC[C@@H]5O)nc4)cc3s2)C1)C1(C(F)F)CC1 (stereo partly shown) [b-03-05]
116	2.8	CN(C1CC(C(=O)Nc2nc3ccc(-c4cnc(CO[C@H]5CCC[C@@H]5O)nc4)cc3s2)C1)C12CC(C#N)(C1)C2 (stereo partly shown) [b-03-06]
183	5.26	CN(C1CC(C(=O)Nc2nc3ccc(-c4cnc(CO[C@H]5CCC[C@@H]5O)nc4)cc3s2)C1)[C@@H]1C[C@H]1C(F)(F)F (stereo partly shown) [b-03-07]
127	2.68	CN(C1CC(C(=O)Nc2nc3ccc(-c4cnc(CO[C@H]5CCC[C@@H]5O)nc4)cc3s2)C1)C1CC(F)(F)C1 (stereo partly shown) [b-03-08]
143	2.21	CN(c1cnn(C)c1)C1CC(C(=O)Nc2nc3ccc(-c4cnc(CO[C@H]5CCC[C@@H]5O)nc4)cc3s2)C1 (stereo partly shown) [b-03-09]
51	5.49	C[C@H]1CN(C(=O)OC(C)(C)C)CCN1[C@H]1C[C@@H](C(=O)Nc2nc3ccc(-c4cnc(CO[C@H]5CCC[C@@H]5O)nc4)cc3s2)C1 [b-04-01, tert-Butyl (S)-4-((1S,3R)-3-((6-(2-((((1S,2S)-2-hydroxycyclopentyl)oxy)methyl)pyrimidin-5-yl)benzo[d]thiazol-2-yl)carbamoyl)cyclobutyl)-3-methylpiperazine-1-carboxylate]
